Calls of active or inactive are those of the source. The calls are words filed in the database; no cut-off is given here.
How the values were obtained:
[1] = biological target: Protein cereblon/Cytochrome P450 1B1 (Homo sapiens, UniProt Q16678+Q96SW2); assay: PROTAC activity at CRBN/CYP1B1 in human A549/Taxol cells assessed as degradation by measuring fold change in remaining CYP1B1 level incubated for 24 hrs by Western blotting analysis (reference value: 1); format: ADME, cell-based
[2] = biological target: T1, von Hippel-Lindau disease tumor suppressor/Cytochrome P450 1B1 (Homo sapiens, UniProt Q16678+P40337); assay: PROTAC activity at VHL/CYP1B1 in human A549/Taxol cells assessed as degradation by measuring fold change in remaining CYP1B1 level incubated for 24 hrs by Western blotting analysis (reference value: 1); format: ADME, cell-based
T1 sequence (P40337 whole entry, one chain of several): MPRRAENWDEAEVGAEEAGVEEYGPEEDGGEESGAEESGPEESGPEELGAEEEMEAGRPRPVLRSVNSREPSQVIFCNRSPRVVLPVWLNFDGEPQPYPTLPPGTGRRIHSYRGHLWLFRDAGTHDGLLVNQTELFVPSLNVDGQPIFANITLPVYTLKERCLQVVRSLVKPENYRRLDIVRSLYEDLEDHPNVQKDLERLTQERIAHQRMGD

Cytochrome P450 1A2 = biological target: T2, Cytochrome P450 1A2 (Homo sapiens, UniProt P05177); assay: Inhibition of recombinant human CYP1A2 using 7-ethyl-O-resorufin as substrate incubated for 30 mins in presence of NADPH by EROD assay; format: ADME
T2 sequence (P05177 whole entry): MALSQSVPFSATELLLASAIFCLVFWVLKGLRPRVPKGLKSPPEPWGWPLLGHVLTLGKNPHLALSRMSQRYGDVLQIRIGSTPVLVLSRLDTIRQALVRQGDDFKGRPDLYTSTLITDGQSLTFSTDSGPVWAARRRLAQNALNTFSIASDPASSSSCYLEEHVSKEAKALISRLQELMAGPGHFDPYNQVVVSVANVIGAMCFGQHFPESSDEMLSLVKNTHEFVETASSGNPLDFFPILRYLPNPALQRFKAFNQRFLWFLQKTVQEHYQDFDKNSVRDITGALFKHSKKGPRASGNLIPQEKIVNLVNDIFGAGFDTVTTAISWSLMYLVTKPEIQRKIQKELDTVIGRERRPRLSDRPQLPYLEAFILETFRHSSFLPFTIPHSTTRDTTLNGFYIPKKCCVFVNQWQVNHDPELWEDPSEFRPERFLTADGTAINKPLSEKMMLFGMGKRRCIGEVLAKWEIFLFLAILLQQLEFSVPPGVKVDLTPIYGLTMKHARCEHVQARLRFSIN

[3] = biological target: T1, von Hippel-Lindau disease tumor suppressor/Cytochrome P450 1B1; assay: PROTAC activity at VHL/CYP1B1 in human A549/Taxol cells assessed as reduction in CYP1B1 level at 100 nM incubated for 24 hrs by Western blotting analysis; format: ADME, cell-based; conditions: 0.1 µM
Cytochrome P450 1B1 = biological target: T3, Cytochrome P450 1B1 (Homo sapiens, UniProt Q16678); assay: Inhibition of recombinant human CYP1B1 using 7-ethyl-O-resorufin as substrate incubated for 30 mins in presence of NADPH by EROD assay; format: ADME
T3 sequence (Q16678 whole entry): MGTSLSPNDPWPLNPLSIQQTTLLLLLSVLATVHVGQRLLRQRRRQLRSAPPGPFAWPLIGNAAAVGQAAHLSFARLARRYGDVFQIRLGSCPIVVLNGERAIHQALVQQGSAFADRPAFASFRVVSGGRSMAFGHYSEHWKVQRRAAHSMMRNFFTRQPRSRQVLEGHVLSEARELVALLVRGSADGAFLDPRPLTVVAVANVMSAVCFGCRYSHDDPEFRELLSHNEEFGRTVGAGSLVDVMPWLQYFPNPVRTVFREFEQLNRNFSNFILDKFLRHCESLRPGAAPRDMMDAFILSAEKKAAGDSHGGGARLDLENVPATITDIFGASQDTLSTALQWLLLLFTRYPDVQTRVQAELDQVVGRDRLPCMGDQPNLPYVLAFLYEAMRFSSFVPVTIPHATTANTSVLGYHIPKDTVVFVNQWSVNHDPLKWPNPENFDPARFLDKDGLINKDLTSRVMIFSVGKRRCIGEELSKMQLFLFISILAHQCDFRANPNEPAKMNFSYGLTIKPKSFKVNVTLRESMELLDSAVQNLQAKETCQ

A549/TR [4] = assay: Downregulation of P-glycoprotein expression in human A549/Taxol cells at 0.1 to 10 nM by Western blotting analysis; format: functional, cell-based; conditions: dose 0.1-10 nM
[5] = biological target: Proto-oncogene tyrosine-protein kinase Src (Homo sapiens) (UniProt P12931); assay: Inhibition of SRC phosphorylation in human A549/Taxol cells at 0.1 to 10 nM incubated for 24 hrs by Western blotting analysis; format: cell-based; conditions: dose 0.1-10 nM
Proto-oncogene tyrosine-protein kinase Src (Homo sapiens), sequence (P12931 2-536 limits assumed): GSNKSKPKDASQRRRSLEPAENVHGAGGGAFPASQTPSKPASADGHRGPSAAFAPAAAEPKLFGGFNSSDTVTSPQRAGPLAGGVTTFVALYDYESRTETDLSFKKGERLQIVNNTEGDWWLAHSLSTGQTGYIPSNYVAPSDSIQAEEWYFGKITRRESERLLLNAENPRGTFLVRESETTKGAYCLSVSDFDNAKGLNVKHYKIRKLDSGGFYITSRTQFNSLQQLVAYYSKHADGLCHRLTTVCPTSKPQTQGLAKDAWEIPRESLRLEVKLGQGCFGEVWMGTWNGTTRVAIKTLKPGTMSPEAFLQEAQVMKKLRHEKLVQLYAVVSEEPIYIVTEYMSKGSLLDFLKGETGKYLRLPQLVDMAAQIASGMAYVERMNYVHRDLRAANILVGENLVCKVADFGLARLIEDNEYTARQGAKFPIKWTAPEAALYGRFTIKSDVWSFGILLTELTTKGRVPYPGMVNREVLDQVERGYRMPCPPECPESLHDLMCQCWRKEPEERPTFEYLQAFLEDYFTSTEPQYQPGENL

A549/TR [6] = assay: Inhibition of epithelial-to-mesenchymal transition in human A549/Taxol cells assessed as reduction in CYP1B1 expression at 0.1 to 10 nM incubated for 24 hrs by immunoblot analysis; format: functional, cell-based; conditions: dose 0.1-10 nM
[7] = biological target: T1, von Hippel-Lindau disease tumor suppressor/Cytochrome P450 1B1; assay: PROTAC activity at VHL/CYP1B1 in human A549/Taxol cells assessed as reduction in CYP1B1 level by Western blotting analysis; format: ADME, cell-based
A549/TR [8] = assay: Reversal of taxol resistance in human A549/Taxol cells assessed as decrease in cell viability at 0.1 to 10 nM incubated for 48 to 72 hrs by MTT assay; format: functional, cell-based; conditions: dose 0.1-10 nM, time 48-72 hrs
A549/TR [9] = assay: Effect on paxillin protein level in human A549/Taxol cells at 0.1 to 10 nM incubated for 24 hrs by Western blotting analysis; format: functional, cell-based; conditions: dose 0.1-10 nM
Cytochrome P450 1A1 = biological target: T4, Cytochrome P450 1A1 (Homo sapiens, UniProt P04798); assay: Inhibition of recombinant human CYP1A1 using 7-ethyl-O-resorufin as substrate incubated for 30 mins in presence of NADPH by EROD assay; format: ADME
T4 sequence (P04798 whole entry): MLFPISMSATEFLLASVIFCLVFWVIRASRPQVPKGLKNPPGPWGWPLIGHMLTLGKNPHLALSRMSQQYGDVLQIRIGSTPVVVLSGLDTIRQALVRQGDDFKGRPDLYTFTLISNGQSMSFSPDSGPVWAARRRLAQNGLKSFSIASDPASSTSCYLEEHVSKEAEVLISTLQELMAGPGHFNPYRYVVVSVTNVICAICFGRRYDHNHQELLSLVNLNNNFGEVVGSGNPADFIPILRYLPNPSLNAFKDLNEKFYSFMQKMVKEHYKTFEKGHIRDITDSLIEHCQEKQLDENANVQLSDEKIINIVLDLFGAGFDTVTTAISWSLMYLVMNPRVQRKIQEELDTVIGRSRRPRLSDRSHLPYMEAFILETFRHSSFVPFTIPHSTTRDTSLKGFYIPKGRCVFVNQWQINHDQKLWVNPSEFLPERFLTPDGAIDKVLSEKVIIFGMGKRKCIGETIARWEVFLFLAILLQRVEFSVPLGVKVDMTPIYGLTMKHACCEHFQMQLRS

A549/TR [10] = assay: Inhibition of cell migration in human A549/Taxol cells at 0.1 to 10 nM incubated for 48 hrs by wound healing assay; format: functional, cell-based; conditions: dose 0.1-10 nM

Protein cereblon/Cytochrome P450 1B1, sequence (Q96SW2 whole entry, one chain of several): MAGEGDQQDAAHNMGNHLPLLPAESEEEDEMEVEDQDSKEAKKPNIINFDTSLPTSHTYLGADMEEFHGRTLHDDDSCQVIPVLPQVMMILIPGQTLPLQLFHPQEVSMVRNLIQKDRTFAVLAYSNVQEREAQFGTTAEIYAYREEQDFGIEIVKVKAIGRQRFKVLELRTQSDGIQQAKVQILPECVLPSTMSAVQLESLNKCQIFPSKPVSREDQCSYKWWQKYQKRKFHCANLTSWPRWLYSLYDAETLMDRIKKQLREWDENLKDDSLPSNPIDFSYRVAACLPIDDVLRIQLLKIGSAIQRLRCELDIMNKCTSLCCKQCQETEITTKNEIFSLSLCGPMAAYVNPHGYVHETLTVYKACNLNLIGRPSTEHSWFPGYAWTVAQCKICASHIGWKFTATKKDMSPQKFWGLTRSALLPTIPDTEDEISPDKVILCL

For `Clc1ccc(Nc2nc(-c3nc(-c4ccccc4)cs3)cs2)cc1`, the “fold change (FC)” value [1] was 0.8, the “fold change (FC)” value [2] was 1 and the IC50 (Cytochrome P450 1A2) was 3910 nM. The Activity [3] was “Not Active”, the IC50 (Cytochrome P450 1B1) was 11.9 nM and the Activity (A549/TR [4]) was “inactive”. The inhibition [5] was “Active”, the inhibition (A549/TR [6]) was “inactive” and the Activity [7] was “Not Active”. For the same compound, the Activity (A549/TR [8]) was “inactive”, the Activity (A549/TR [9]) was “Active” and the IC50 (Cytochrome P450 1A1) was 279 nM. For the same compound, the inhibition (A549/TR [10]) was “inactive”.

From ChEMBL document CHEMBL5523713, “Development of novel N-aryl-2,4-bithiazole-2-amine-based CYP1B1 degraders for reversing drug resistance” (Eur J Med Chem, 2024)
